Legend:
[1] = system: rumen liquor; test: In vitro test for methane production (modified Hohenheim Forage value Test, HFT); format: cell-based; conditions: for Total methane: 8 h, 39° C., artificial TMR, average of three experiments
Experimental: In Vitro Test for Methane Production:
(§1) A modified version of the “Hohenheim Forage value Test (HFT)” was used for testing the effect of specific compounds on the rumen functions mimicked by this in-vitro system.
(§2) Feed is gadded into a syringe with a composition of rumen liquor and an appropriate mixture of buffers. The solution is incubated at 39° C. After 8 hours the quantity (and composition) of gas phase produced is measured and put into a formula for conversion.
(§3) The feed stuff is sieved to 1 mm—usually TMR (44% concentrate, 6% hay, 37% maize silage and 13% grass silage)—and weighed exactly into 64 syringes. 4 of these syringes are the substrate controls, which display the gas production without the effect of the tested compounds. […] When needed, 4 syringes contain a carrier control (if the test compounds need a carrier). The remaining syringes contain the test substances, by groups of 4 syringes.
(§4) Preparation of the Medium Solution: • The components are mixed in a Woulff bottle in following order: • 711 ml water • 0.18 ml trace element solution • 355.5 ml buffer solution • 355.5 ml mass element solution • The completed solution is warmed up to 39° C. followed by the addition of 1.83 ml sodium salt solution and the addition of reduction solution at 36° C. The rumen liquor is added, when the indicator turns colourless.
(§5) 750 ml of rumen liquor are added to approximately 1,400 ml of medium solution under continued agitation and CO2-gassing.
(§6) The diluted rumen fluid (24 ml) is added to the glass syringe. The syringes are then incubated for 8 hours at 39° C. under gentle agitation. After 8 hours, the volume of gas produced is measured, and the percentage of methane in the gas phase is determined by gas chromatography.
(§7) The food fermented was artificial TMR (44% concentrate, 6% hay, 37% maize silage and 13% grass silage). Lauric acid from Sigma Aldrich was used at a concentration of 1000 μM. 3-Nitrooxy-propanol (3-NOP) was used at two different concentrations, 2.5 μM and 5 μM.
(§8) Ace.=acetate; Prop.=propionate

[2] = system: rumen liquor; test: Effect on volatile fatty acids (VFA) profile, acetate/propionate ratio (modified Hohenheim Forage value Test, HFT); format: cell-based; conditions: for Ace./Prop.: 8 h, 39° C., artificial TMR, average of three experiments
Experimental: as §1, §2, §3, §4, §5
Filling the Syringes, Incubation and Determining Gas Volumes and VFA Values:
as §6, §7, §8

Structure (SMILES)	Reduction vs. control (methane) ([1]; 3-NOP 2.5 μM)	Total methane ([1]; 3-NOP 2.5 μM)	Reduction vs. control (methane) ([1]; 3-NOP 5 μM)	Total methane ([1]; 3-NOP 5 μM)	Reduction vs. control (Ace./Prop.) ([2]; 3-NOP 2.5 μM)	Ace./Prop. ([2]; 3-NOP 2.5 μM)	Reduction vs. control (Ace./Prop.) ([2]; 3-NOP 5 μM)	Ace./Prop. ([2]; 3-NOP 5 μM)	Reduction vs. control (methane) ([1]; Lauric acid 1000 μM)	Total methane ([1]; Lauric acid 1000 μM)	Reduction vs. control (Ace./Prop.) ([2]; Lauric acid 1000 μM)	Ace./Prop. ([2]; Lauric acid 1000 μM)
O=[N+]([O-])OCCCO [3-NOP, 3-Nitrooxypropanol]	0.023 mmol over 8 h	0.244 mmol over 8 h	0.17 mmol over 8 h	0.097 mmol over 8 h	0.17 Mole Ratio	2.09 Mole Ratio	0.63 Mole Ratio	1.63 Mole Ratio				
CCCCCCCCCCCC(=O)O [Lauric acid, reference compound]									0.012 mmol over 8 h	0.255 mmol over 8 h	0.28 Mole Ratio	1.98 Mole Ratio
